Each structure is given as a SMILES string.

The subject of assay [1] is isolated rabbit thoracic aorta preparations. In words: Assay on vascular tone (vasorelaxation of methoxamine-precontracted aortic rings). It counts as cell-based. The settings on record: for EC50: Oryctolagus cuniculus, read-out: EC50 (concentration producing 50% of the maximum relaxation). As to the method: The ability of the compounds of the invention to induce vasorelaxation in comparison to precursor compound, was tested in vitro in isolated rabbit thoracic aorta preparations (Wanstall J. C. et al., Br. J. Pharmacol., 134:463-472, 2001).
Male New Zealand rabbits (1, 8-2 Kg) were used. The animals were anaesthetized with sodium thiopental (50 mg/kg, iv), sacrificed by exsanguinations and then the thorax was opened and the aorta dissected. The aortas were placed immediately in Krebs-HEPES buffer (pH 7.4; composition mM: NaCl 130.0, KCl 3.7, NaHCO3 14.9, KH2PO4 1.2, MgSO4⊙7H2O 1.2, Glucose 11.0, HEPES 10.0, CaCl2.2H2O 1.6) and cut into ring segments (4-5 mm in length). Each ring was placed in a 5 ml tissue bath filled with Krebs-HEPES buffer (37° C.) aerated with 95% O2 and 5% CO2 and was then attached to a force transducer (Grass FT03), connected to a BIOPAC MP150 System for measurement of the isometric tension^2. The preparations were allowed to equilibrate for 1 h at a resting tension of 2 g with changes of the buffer every 15 minutes and then stimulated by exposure to 90 mM KCl (3 times) with intervening washings. After equilibration, the rings were precontracted submaximally with methoxamine (3 μM) and, when the contraction reach a steady state a cumulative concentration-response curve to the test compounds was obtained. The time intervals between doses were based on the time needed to reach a full a steady state response.
Responses to test compounds were expressed as a percentage of residual contraction and plotted against concentration of test compound. EC50 values (where EC50 is the concentration producing 50% of the maximum relaxation to the test compound) were interpolated from these plots.

Assay [2] concerns corticosteroid-induced glaucoma. The settings on record: rabbit, administered topically twice a day; cited from earlier work.

On to `COc1cc(C(=O)OCCCCO[N+](=O)[O-])ccc1OC(=O)OCC(=O)[C@@]1(OC(=O)CCCO[N+](=O)[O-])[C@@H](C)CC2C3CCC4=CC(=O)C=C[C@]4(C)[C@@]3(F)[C@@H](O)C[C@@]21C` (stereo partly drawn) [Compound (3), 4-(nitrooxy)butyl 4-((2-((9R,10S,11S,13S,16S,17R)-9-fluoro-11-hydroxy-10,13,16-trimethyl-17-(4-(nitrooxy)butanoyloxy)-3-oxo-6,7,8,9,10,11,12,13,14,15,16,17-dodecahydro-3H-cyclopenta[a]phenanthren-17-yl)-2-oxoethoxy)carbonyloxy)-3-methoxybenzoate], for which, in assay [1], the EC50 was found to be 1140 ± 480 nM.

Consider `C[C@H]1C[C@H]2[C@@H]3CCC4=CC(=O)C=C[C@]4(C)[C@@]3(F)[C@@H](O)C[C@]2(C)[C@@]1(O)C(=O)CO` [betamethasone, Betamethasone], for which, in assay [1] (rabbit aortic rings precontracted with methoxamine (3 μM), cumulative concentration-response curve), the “EC50 (concentration producing 50% of the maximum relaxation)” value was “no effect”.

Consider `C[C@@H]1C[C@H]2[C@@H]3CCC4=CC(=O)C=C[C@]4(C)[C@@]3(F)[C@@H](O)C[C@]2(C)[C@@]1(O)C(=O)COC(=O)c1ccc(CO[N+](=O)[O-])cc1` [dexamethasone 21-[(4-nitrooxymethyl)]benzoate], for which, in assay [2], the “effects in corticosteroid-induced glaucoma (intraocular pressure, retro bulbar circulation, ciliary body morphology)” value is “may prevent the intraocular pressure increase, the impairment of retro bulbar circulation, and the morphological changes in the ciliary bodies”.

In the case of `C[C@H]1CC2C3CCC4=CC(=O)C=C[C@]4(C)[C@@]3(F)[C@@H](O)C[C@]2(C)[C@@]1(OC(=O)CCCO[N+](=O)[O-])C(=O)COC(=O)CCCO[N+](=O)[O-]` (stereo partly drawn) [Compound (2), (9R,10S,11S,13S,16S,17R)-9-fluoro-11-hydroxy-10,13,16-trimethyl-17-(2-(4-(nitrooxy)butanoyloxy)acetyl)-3-oxo-6,7,8,9,10,11,12,13,14,15,16,17-dodecahydro-3H-cyclopenta[a]phenanthren-17-yl 4-(nitrooxy)butanoate], in assay [1], the EC50 amounted to 1680 ± 610 nM.

The values above are taken from patent US20110130375A1 (priority 2008, published 2011).
